Results published in article PMC2948233 (Organic & biomolecular chemistry, 2010).

Target: T1, phosphopantetheinyl transferase Sfp (Bacillus subtilis, UniProt P39135)
T1 sequence (P39135 1-224): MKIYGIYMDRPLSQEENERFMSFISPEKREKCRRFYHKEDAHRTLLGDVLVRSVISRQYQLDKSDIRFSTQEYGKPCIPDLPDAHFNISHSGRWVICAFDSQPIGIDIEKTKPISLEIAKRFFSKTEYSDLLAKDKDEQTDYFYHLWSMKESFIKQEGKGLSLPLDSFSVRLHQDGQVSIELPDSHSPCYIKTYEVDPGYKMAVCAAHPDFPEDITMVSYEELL
Assay: FRET-quench phosphopantetheinyl transferase assay
Type: biochemical

IC50 [µM]	Compound
3.2	N=C1Sc2ccccc2C2=NCCCN12 [PD 404,182]
20	Clc1ccc(C(c2ccc(Cl)cc2)n2cc[n+](CC(OCc3ccc(Cl)cc3Cl)c3ccc(Cl)cc3Cl)c2)cc1 (centres unmarked) [calmidazolium chloride]
